Assay results from PMC8202855, “Identification of novel hepatitis B virus therapeutic vaccine candidates derived from polymerase protein” (Aging (Albany NY), 2021).
“Also recorded” adds a separate entry of the source.

Key:
[1] = system: epitope-specific T cells from PBMCs of healthy donors; experiment: In vitro human IFN-γ ELISPOT assay of epitope-specific T cells; format: cell-based; conditions: HLA-A0201-positive PBMCs of healthy donors cultured with peptide 50 μM and IL-2 100 U/ml, day 20; T cells 5x10^5/ml; versus PBS-induced control; 3 independent experiments
Procedure: In order to measure the ability of epitope-specific T cells to produce IFN-γ, the ELISPOT assay was performed according to the instructions of the kit (Invitrogen, Carlsbad, CA, USA). Epitope-specific T cells(5x10^5/ml) were added to plates. An automated ELISPOT plate reader was used to quantify IFN-γ release by counting the number of spots present.

[2] = system: T2 cells; experiment: In vitro cytotoxicity assay against T2 cells (LDH release); format: cell-based; conditions: peptide-pulsed T2 cells 1×10^5/well, effector:target 10:1, 20:1, 40:1, 37° C, 5 hours, 3 independent experiments
Procedure: T2 cell is (transporter associated with antigen processing, TAP) deficient cell line. When T2 cell is cultured with different epitopes, the HLA-A0201 molecule on surface of T2 cell will bind to different epitopes, the epitope-HLA-A0201 complex can be recognized by epitope-specific T cells and corresponding T2 cell will be lysed. In order to determine the cytotoxic activity of epitope-specific T cells, we measured LDH release based on the instructions of a non-radioactive cytotoxicity assay kit (Promega, USA). Epitope-specific T cells served as effector cells, and T2 cells loaded with or without each peptide served as target cells. The ratios of effector cells versus target cells were set to 10:1, 20:1 and 40:1. The effector cells were co-cultured with target cells (1×10^5/well) at 37° C for 5 hours, and LDH release was measured.

[3] = system: HepG2.2.15 cells; experiment: In vitro cytotoxicity assay against HepG2.2.15 cells (LDH release); format: cell-based; conditions: effector:target 20:1, 37° C, 12 hours, versus PBS-induced control, 3 independent experiments
Procedure: In order to determine the antiviral abilities of epitope-specific T-cells, we detect the cytotoxicity of epitope-specific T cells against HepG2.2.15 cell. […] The ratios of epitope-specific T-cells versus HepG2.2.15 cells were set to 5:1, 10:1, 20:1. The effector cells and target cells were incubated together in 96-well plates at 37° C for 12 hours, and each well was added to total volume of 200 ul. The cytotoxicity activity of epitope-specific T-cells was evaluated based on LDH release using a non-radio-active cytotoxicity assay kit (Promega, US). The percentage of lysis was calculated as formula: (experimental release- target cell spontaneous release- effector cell spontaneous release)/(target cell maximum release- target cell spontaneous release).

[4] = system: HBV-DNA; experiment: HBV gene expression assay: HBV-DNA (real-time fluorescence quantitative PCR); format: cell-based, Hepatitis B virus; conditions: co-culture with HepG2.2.15 cells, effector:target 10:1, 72 hours, supernatant quantitative PCR; versus PBS group; 3 independent experiments
Procedure: (§1) To validate the ability of epitopes to induce and stimulate the epitope-specific T cells, we used PBMCs from the blood of healthy donors. […] PBMCs were obtained through centrifugation at a Ficoll-Paque density gradient and suspended in RPMI-1640 medium supplemented with 10% fetal bovine serum (FBS), 100 U/ml penicillin and 100 μM streptomycin. PBMCs were stained by FITC-conjugated anti-HLA-A2 mAb and analyzed by flow cytometry. HLA-A0201-positive PBMCs were used for the expansion of epitope-specific T cells. PBMCs were cultured with each peptide (50 μM) and recombinant interleukin 2 (100 U/ml; Sigma, USA). Half of the culture medium was replaced with fresh RPMI-1640 medium every 3 or 4 days. […]
(§2) The antiviral abilities of epitopes were also determined by HBV gene expression assay. […] The HBsAg concentration was detected by enzyme-linked immunosorbent assay (ELISA) according to the manufacturer’s protocol (Shanghai Siic Kehua Biotech Co., Ltd.). And the HBV-DNA concentration was detected by real-time fluorescence quantitative PCR according to the manufacturer’s protocol (Yaneng Bioscience (Shenzhen) Co., Ltd.). […] The inhibition ratios of HBsAg and HBV-DNA were calculated as the formula: (1- experimental group/ control group)×100%.

[5] = system: HBsAg; conditions: co-culture with HepG2.2.15 cells, effector:target 10:1, 72 hours, supernatant ELISA; versus PBS group; 3 independent experiments
Procedure: as §1, §2

[6] = target: T1, HLA-A0201 molecule (Homo sapiens, UniProt P04439, D140Y/D185E/D98H/E176V/E277Q/G131W/G231S/I119V/I121R/I166T/I218V/L300P/L318F/N151K/N90K/P208A/P217A/Q86G/Q94H/R138H/R169H/T345S); experiment: Peptide binding assay on T2 cells (HLA-A0201, flow cytometry); conditions: T2 cells 1×10^6/well, peptide 100 μM, 18 hours, 37° C; FITC anti-HLA-A2 mAb BB7.2, flow cytometry; FI = (MFI peptide - background MFI)/background MFI; FI > 1 = high affinity; one representative of 3 independent experiments
T1 construct: endogenous in cells; host or cells: T2 cells (TAP-deficient human cell line)
Procedure: To analyze the binding affinity between epitopes and the HLA-A0201 molecule, we performed a peptide binding assay according to our previous study [18]. Briefly, T2 cells (1×10^6/well) were incubated with peptides (100 μM) in 24-well plates for 18 hours at 37° C. T2 cells without peptides served as a background control. After being washed with phosphate buffer saline (PBS) three times, cells were stained with FITC-conjugated anti-HLA-A2 mAb BB7.2 and analyzed using a BD AccuriC6 flow cytometer (Becton Dickinson, Mountain View, CA, USA). The mean fluorescence index (MFI) was recorded [43]. We calculated the fluorescence index (FI) as follows: FI = (MFI with individual peptides - background MFI)/(background MFI).

| Sequence | IFN-γ secretion of epitope-specific T cells (ELISPOT, in words) [1] | Cytotoxic activity of epitope-specific T cells toward T2 cells (in words) [2] | Cytotoxic activity of epitope-specific T cells against HepG2.2.15 cells (in words) [3] | Elimination of HBV-DNA by epitope-specific T cells (in words) [4] | Inhibition of HBsAg expression by epitope-specific T cells (in words) [5] | Fluorescence index (FI) [6] |
| --- | --- | --- | --- | --- | --- | --- |
| GLLGFAAPF | more IFN-γ secretion than was measured in control (P<0.05) | higher cytotoxic activity toward T2 cells compared to T cells stimulated by other epitopes | higher cytotoxic activities against HepG2.2.15 cells compared to control group (P<0.05) | higher abilities to eliminate HBV-DNA compared to the PBS group (P<0.05) | higher activities to inhibit the expression of HBsAg compared to the PBS group (P<0.05) | – |
| HLPDRVHFA | – | – | – | – | – | 0.2920 |
| HLYSHPIIL | more IFN-γ secretion than was measured in control (P<0.05) | higher cytotoxic activity toward T2 cells compared to T cells stimulated by other epitopes | higher cytotoxic activities against HepG2.2.15 cells compared to control group (P<0.05) | higher abilities to eliminate HBV-DNA compared to the PBS group (P<0.05) | higher activities to inhibit the expression of HBsAg compared to the PBS group (P<0.05) | – |
| RVTGGVFLV | lesser ability to induce epitope-specific T cells | lesser ability to induce epitope-specific T cells | higher cytotoxic activities against HepG2.2.15 cells compared to control group (P<0.05); also recorded: obvious weaker than the other two epitopes | – | – | – |
| YVIGSWGTL | – | – | – | – | – | 0.8953 |
